Results: ChEMBL document CHEMBL1138382, “Tetrahydroquinoline sulfonamides as gamma-secretase inhibitors” (Bioorg Med Chem Lett, 2007)
pIC50: −log10 of the molar value.

What follows are compounds tested against Gamma-secretase (assay: Inhibition of Gamma-secretase).
Assay type: protein-complex assay, Homo sapiens

First: O=C(NCc1ccc([N+](=O)[O-])cc1)OCC1CCc2ccccc2N1S(=O)(=O)c1ccc(Cl)cc1 (centres undefined)
Second: O=C(NCc1ccncc1)OCC1CCc2ccccc2N1S(=O)(=O)c1ccc(Cl)cc1 (centres undefined)
The pIC50 of the first is 0.25 log units lower: 5.53 for the first, 5.78 for the second. The second is the more potent here.

First: CN1CCCC1CCNC(=O)OCC1CCc2ccccc2N1S(=O)(=O)c1ccc(Cl)cc1 (centres undefined)
Second: CCN(CCC1CCCN1C)C(=O)OCC1CCc2ccccc2N1S(=O)(=O)c1ccc(Cl)cc1 (centres undefined)
The pIC50 of the first is 0.30 log units lower: 6.30 for the first, 6.60 for the second.

`O=C(OCC1CCc2ccccc2N1S(=O)(=O)c1ccc(Cl)cc1)N1CCN(CCO)CC1` (centres undefined) and `CCCN1CCN(C(=O)OCC2CCc3ccccc3N2S(=O)(=O)c2ccc(Cl)cc2)CC1` (centres undefined) are within 0.2 log units of each other in pIC50: 6.52 for the first, 6.36 for the second.

First: O=C(NCCO)OCC1CCc2ccccc2N1S(=O)(=O)c1ccc(Cl)cc1 (centres undefined)
Second: O=C(NCCCN1CCCC1)OCC1CCc2ccccc2N1S(=O)(=O)c1ccc(Cl)cc1 (centres undefined)
The pIC50 of the first is 1.05 log units lower: 5.35 for the first, 6.40 for the second. The second is the more potent here.

Going from `CCN(CCCN1CCCC1)C(=O)OCC1CCc2ccccc2N1S(=O)(=O)c1ccc(Cl)cc1` (centres undefined) to `CCN(Cc1ccncc1)C(=O)OCC1CCc2ccccc2N1S(=O)(=O)c1ccc(Cl)cc1` (centres undefined), the pIC50 rises from 6.76 to 7.06 (0.30 log units).

First: CCN(Cc1ccnc(N)c1)C(=O)OCC1CCc2ccccc2N1S(=O)(=O)c1ccc(Cl)cc1 (centres undefined)
Second: O=C(NCCc1ccccc1)OCC1CCc2ccccc2N1S(=O)(=O)c1ccc(Cl)cc1 (centres undefined)
The pIC50 of the first is 0.28 log units higher: 6.24 for the first, 5.96 for the second. The first is the more potent here.

Compared with `O=C(OCC1CCc2cc(F)ccc2N1S(=O)(=O)c1ccc(Cl)cc1)N1CCC(N2CCCCC2)CC1` (centres undefined), `O=C(OCC1CCc2ccc(F)cc2N1S(=O)(=O)c1ccc(Cl)cc1)N1CCC(N2CCCCC2)CC1` (centres undefined) is higher in pIC50: < 6.00 for the first, 7.25 for the second. The second is the more potent here.

First: O=C(OCC1CCc2ccccc2N1S(=O)(=O)c1ccc(Cl)cc1)N1CCC(N2CCCCCC2)CC1 (centres undefined)
Second: O=C(OCC1CCc2ccccc2N1S(=O)(=O)c1ccc(Cl)cc1)N1CCC(N2CCCCC2)CC1 (single isomer, unassigned; enantiomer a)
The pIC50 of the first is 0.82 log units lower: 6.59 for the first, 7.41 for the second. The second is the more potent here.

`NC1CCN(C(=O)OCC2CCc3ccccc3N2S(=O)(=O)c2ccc(Cl)cc2)CC1` (centres undefined) and `CN(C)C1CCN(C(=O)OCC2CCc3ccccc3N2S(=O)(=O)c2ccc(Cl)cc2)CC1` (centres undefined) are within 0.2 log units of each other in pIC50: 6.17 for the first, 6.20 for the second.

Going from `O=C(OCC1CCc2ccccc2N1S(=O)(=O)c1ccc(Cl)cc1)N1CCC(N2CCCC2)CC1` (centres undefined) to `O=C(OCC1CCc2ccccc2N1S(=O)(=O)c1ccc(Cl)cc1)N1CCC(N2CCCCC2)CC1` (single isomer, unassigned; enantiomer b), the pIC50 falls from 6.54 to < 6.00.

`O=C(OCC1CCc2c(F)cc(F)cc2N1S(=O)(=O)c1ccc(Cl)cc1)N1CCC(N2CCCCC2)CC1` (centres undefined) and `O=C(OCC1CCc2c(F)ccc(F)c2N1S(=O)(=O)c1ccc(Cl)cc1)N1CCC(N2CCCCC2)CC1` (centres undefined) are the same in pIC50: 6.66 for the first, 6.66 for the second.

Going from `O=C(OCC1CCc2ccccc2N1S(=O)(=O)c1ccc(Cl)cc1)N1CCN(C2CCCCC2)CC1` (centres undefined) to `O=C(OCC1CCc2ccccc2N1S(=O)(=O)c1ccc(Cl)cc1)N1CCC(N2CCCCC2)CC1` (stereo in doubt; 26), the pIC50 rises from 6.27 to 7.14 (0.87 log units). The second is the more potent here.
